Legend:
Experiment in all cases: Receptor Tyrosine Kinase Inhibition Assay
Conditions in all cases: pH 7.5; 23 °C
[1] = biological target: Receptor tyrosine-protein kinase erbB-4 (Homo sapiens, UniProt Q15303)
Method: (§1) Assays were performed in 96-well microtiter plates in reaction buffer containing biotinylated substrate, ATP/[gamma-33P]ATP, and purified kinase in the presence of test compounds. Reactions were terminated and transferred to MAPH phosphocellulose filter plates. The scintillation mixture was added to each well, and the assay was quantified by counting in a Packard Topcount (Packard Instrument Co.).

[2] = biological target: Receptor tyrosine-protein kinase erbB-2 (Homo sapiens, UniProt P04626)
Method: as §1

[3] = biological target: Epidermal growth factor receptor (Homo sapiens, UniProt P00533)
Method: as §1

Chain of Epidermal growth factor receptor (P00533 whole entry): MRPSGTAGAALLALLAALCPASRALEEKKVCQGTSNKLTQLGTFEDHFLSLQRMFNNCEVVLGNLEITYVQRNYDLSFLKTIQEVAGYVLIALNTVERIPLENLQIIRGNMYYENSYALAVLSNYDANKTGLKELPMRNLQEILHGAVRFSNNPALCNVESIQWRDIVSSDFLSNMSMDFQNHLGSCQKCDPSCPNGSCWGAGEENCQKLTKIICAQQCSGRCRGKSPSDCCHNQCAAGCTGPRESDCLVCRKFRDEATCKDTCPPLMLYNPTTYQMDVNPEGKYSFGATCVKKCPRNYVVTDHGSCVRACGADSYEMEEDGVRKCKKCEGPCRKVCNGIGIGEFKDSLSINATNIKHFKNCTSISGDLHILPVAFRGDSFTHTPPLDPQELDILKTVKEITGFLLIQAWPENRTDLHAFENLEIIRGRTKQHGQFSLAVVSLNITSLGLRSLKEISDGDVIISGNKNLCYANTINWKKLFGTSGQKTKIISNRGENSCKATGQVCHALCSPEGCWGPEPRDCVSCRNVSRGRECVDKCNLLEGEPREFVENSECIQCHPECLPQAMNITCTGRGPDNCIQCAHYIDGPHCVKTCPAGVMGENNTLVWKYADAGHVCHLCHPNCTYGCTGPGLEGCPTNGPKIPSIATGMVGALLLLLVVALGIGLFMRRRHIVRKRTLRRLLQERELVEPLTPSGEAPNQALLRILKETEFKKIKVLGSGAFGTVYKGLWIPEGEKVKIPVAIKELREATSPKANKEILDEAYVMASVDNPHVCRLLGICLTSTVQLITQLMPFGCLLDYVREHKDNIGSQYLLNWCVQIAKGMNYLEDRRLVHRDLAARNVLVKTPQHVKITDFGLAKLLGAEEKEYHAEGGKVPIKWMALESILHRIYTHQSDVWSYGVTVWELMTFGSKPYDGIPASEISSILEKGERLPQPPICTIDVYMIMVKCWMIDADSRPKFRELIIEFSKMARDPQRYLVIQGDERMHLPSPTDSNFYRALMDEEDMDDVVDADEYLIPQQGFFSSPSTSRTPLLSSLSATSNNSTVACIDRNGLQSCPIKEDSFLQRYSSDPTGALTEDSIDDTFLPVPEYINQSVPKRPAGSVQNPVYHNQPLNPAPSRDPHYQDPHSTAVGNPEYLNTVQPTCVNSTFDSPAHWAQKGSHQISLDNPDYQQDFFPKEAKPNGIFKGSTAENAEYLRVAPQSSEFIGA
Chain of Receptor tyrosine-protein kinase erbB-2 (P04626 whole entry): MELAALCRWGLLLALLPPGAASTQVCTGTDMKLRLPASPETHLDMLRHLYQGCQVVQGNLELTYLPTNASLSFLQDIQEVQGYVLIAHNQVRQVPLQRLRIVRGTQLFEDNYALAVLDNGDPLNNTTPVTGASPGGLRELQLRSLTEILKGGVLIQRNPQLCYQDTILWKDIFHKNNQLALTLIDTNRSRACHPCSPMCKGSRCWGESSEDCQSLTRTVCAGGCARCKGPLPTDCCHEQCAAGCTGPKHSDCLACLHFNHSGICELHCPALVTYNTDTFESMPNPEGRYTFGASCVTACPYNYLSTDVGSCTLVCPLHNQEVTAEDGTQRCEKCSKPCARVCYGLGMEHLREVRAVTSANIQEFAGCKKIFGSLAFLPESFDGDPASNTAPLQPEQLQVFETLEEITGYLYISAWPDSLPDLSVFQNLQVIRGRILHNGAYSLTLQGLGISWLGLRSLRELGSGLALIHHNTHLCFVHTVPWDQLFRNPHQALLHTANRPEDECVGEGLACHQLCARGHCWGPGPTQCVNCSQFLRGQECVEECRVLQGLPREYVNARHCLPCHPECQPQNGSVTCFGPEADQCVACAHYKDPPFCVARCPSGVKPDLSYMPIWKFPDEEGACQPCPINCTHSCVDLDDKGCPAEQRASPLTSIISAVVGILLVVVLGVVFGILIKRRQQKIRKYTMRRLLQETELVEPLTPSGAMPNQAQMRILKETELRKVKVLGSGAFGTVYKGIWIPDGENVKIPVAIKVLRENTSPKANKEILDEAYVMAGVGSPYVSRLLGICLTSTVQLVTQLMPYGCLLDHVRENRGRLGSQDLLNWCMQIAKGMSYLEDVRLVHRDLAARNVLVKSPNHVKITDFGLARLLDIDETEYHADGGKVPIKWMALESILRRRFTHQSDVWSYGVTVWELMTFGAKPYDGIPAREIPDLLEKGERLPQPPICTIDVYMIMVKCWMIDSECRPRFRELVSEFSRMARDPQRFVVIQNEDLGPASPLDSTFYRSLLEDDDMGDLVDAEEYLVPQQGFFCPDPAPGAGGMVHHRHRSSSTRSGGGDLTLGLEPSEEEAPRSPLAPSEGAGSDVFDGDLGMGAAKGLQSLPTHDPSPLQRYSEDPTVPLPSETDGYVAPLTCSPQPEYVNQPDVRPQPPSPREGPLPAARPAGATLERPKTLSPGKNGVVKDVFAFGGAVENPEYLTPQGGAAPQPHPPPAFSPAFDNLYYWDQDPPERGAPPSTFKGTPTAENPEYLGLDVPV
Chain of Receptor tyrosine-protein kinase erbB-4 (Q15303 whole entry): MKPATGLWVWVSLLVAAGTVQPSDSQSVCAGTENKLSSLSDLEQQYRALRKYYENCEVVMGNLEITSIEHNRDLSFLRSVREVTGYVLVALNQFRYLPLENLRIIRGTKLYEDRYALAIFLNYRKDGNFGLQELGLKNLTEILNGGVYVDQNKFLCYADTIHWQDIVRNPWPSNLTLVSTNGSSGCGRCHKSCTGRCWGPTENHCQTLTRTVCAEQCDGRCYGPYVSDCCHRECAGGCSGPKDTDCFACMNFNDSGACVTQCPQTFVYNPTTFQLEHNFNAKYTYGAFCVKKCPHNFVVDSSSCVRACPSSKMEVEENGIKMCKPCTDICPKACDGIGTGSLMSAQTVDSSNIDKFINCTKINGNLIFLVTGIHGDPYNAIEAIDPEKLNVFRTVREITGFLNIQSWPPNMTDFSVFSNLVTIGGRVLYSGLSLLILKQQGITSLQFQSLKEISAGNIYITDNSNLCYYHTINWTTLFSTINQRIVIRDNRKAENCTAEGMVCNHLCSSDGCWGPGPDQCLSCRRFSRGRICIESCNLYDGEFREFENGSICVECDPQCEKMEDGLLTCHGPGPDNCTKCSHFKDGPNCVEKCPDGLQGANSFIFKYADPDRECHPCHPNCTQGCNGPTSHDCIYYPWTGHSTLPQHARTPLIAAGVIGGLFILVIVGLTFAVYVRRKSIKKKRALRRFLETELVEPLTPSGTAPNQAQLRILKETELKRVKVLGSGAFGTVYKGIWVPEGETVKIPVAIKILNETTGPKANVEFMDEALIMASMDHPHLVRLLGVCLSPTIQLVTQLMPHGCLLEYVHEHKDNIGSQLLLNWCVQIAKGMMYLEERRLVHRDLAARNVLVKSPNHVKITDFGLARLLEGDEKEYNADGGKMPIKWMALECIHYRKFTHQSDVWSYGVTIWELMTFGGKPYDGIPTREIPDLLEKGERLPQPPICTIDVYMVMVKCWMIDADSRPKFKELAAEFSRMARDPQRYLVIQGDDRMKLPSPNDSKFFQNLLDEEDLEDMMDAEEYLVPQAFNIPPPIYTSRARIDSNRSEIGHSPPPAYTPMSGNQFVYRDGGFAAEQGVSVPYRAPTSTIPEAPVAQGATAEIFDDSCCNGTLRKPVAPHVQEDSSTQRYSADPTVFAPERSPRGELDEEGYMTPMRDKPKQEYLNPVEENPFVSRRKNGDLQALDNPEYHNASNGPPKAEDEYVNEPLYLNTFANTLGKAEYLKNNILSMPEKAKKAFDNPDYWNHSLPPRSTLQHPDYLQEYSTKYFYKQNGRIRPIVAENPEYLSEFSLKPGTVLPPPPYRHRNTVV

An IC50 [1] of 412 nM, an IC50 [2] of 27 nM and an IC50 [3] of 64 nM were found for `C[C@H](N)C#Cc1cc2ncnc(Nc3ccc(OCc4cccc(F)c4)c(Cl)c3)c2s1` [6-[(3S)-3-aminobut-1-yn-1-yl]-N-{3-chloro-4-[(3-fluorophenyl)methoxy]phenyl}thieno[3,2-d]pyrimidin-4-amine] in this work.

An IC50 [1] of 638 nM, an IC50 [2] of 44 nM and an IC50 [3] of 69 nM were found for `C[C@H](N)C#Cc1cc2c(Nc3ccc(OCc4cccc(F)c4)c(Cl)c3)ncnc2s1` [6-[(3S)-3-aminobut-1-yn-1-yl]-N-{3-chloro-4-[(3-fluorophenyl)methoxy]phenyl}thieno[2,3-d]pyrimidin-4-amine] in this work.

An IC50 [1] of 1350 nM, an IC50 [2] of 52 nM and an IC50 [3] of 372 nM were found for `Nc1cnc(C#Cc2cc3c(Nc4ccc(OCc5cccc(F)c5)c(Cl)c4)ncnc3s2)cn1` [5-{2-[4-({3-chloro-4-[(3-fluorophenyl)methoxy]phenyl}amino)thieno[2,3-d]pyrimidin-6-yl]ethynyl}pyrazin-2-amine] in this work.

An IC50 [1] of 1720 nM, an IC50 [2] of 19 nM and an IC50 [3] of 71 nM were found for `C#Cc1cc2c(Nc3ccc(OCc4cccc(F)c4)c(Cl)c3)ncnc2s1` [N-{3-chloro-4-[(3-fluorophenyl)methoxy]phenyl}-6-ethynylthieno[2,3-d]pyrimidin-4-amine] in this work.

An IC50 [1] of 66 nM, an IC50 [2] of 13 nM and an IC50 [3] of 7 nM were found for `Fc1cccc(COc2ccc(Nc3ncnc4cc(C#C[C@H]5CCCN5)sc34)cc2Cl)c1` [N-{3-chloro-4-[(3-fluorophenyl)methoxy]phenyl}-6-{2-[(2R)-pyrrolidin-2-yl]ethynyl}thieno[3,2-d]pyrimidin-4-amine] in this work.

An IC50 [1] of 2300 nM, an IC50 [2] of 54 nM and an IC50 [3] of 109 nM were found for `Fc1cccc(COc2ccc(Nc3ncnc4sc(C#C[C@H]5CCCN5)cc34)cc2Cl)c1` [N-{3-chloro-4-[(3-fluorophenyl)methoxy]phenyl}-6-{2-[(2R)-pyrrolidin-2-yl]ethynyl}thieno[2,3-d]pyrimidin-4-amine] in this work.

An IC50 [1] of 254 nM, an IC50 [2] of 10 nM and an IC50 [3] of 47 nM were found for `Nc1cnc(C#Cc2cc3ncnc(Nc4ccc(OCc5cccc(F)c5)c(Cl)c4)c3s2)cn1` [5-{2-[4-({3-chloro-4-[(3-fluorophenyl)methoxy]phenyl}amino)thieno[3,2-d]pyrimidin-6-yl]ethynyl}pyrazin-2-amine] in this work.

An IC50 [2] of 12 nM and an IC50 [3] of 24 nM were found for `C#Cc1cc2ncnc(Nc3ccc(OCc4cccc(F)c4)c(Cl)c3)c2s1` [N-{3-chloro-4-[(3-fluorophenyl)methoxy]phenyl}-6-ethynylthieno[3,2-d]pyrimidin-4-amine] in this work.

Source: BindingDB's records for doi:10.1073/pnas.0708281105 (Gsk, 2008)
